Source: publication PMC7156724, “Potent BRD4 inhibitor suppresses cancer cell-macrophage interaction” (Nature Communications, 2020)
Values joined by “and” are separate entries in the source; they are usually repeats but may differ in a detail not shown here. Equal values may be shown once.

Experiments:
A2780 tumors = test: Orthotopic OC model with CSF1 overexpressing A2780 cells, NHWD-870 treatment; type: in vivo, mouse; set-up: Tumor weight (Fig.6k) / Ascitic fluid (Fig.6l): unit not given here
Experimental: Fig. 6 CSF1/CSF1R signaling is critical for the tumor inhibitory effects of NHWD-870 and CSF1 induced ovarian cancer growth depends on macrophages. a Number of TAMs after treatment with the indicated concentration of CSF1 for 48 h. Data are presented as mean ± SEM from three independent experiments. b–d Schematics of the experiments (b). A2780 cells (pre-treated with DMSO or 100 nM NHWD-870 for 48 h) were seeded into the top chamber (transwell size: 0.4 μm), and TAMs (Mac, 40,000 cells per 24-well) in medium with PBS or 10 ng/ml CSF1 (c), or 50 ng/ml IgG or anti-CSF1R antibodies (d), were seeded into the bottom chamber. Shown are quantification of TAMs (c, d). Data are presented as mean ± SEM from three independent experiments. e Representative western blot analysis of A2780 cells stably transfected with CSF1 or empty vector (EV). Selected from three independent experiments. f Schematics of the animal experiments using an orthotopic mouse OC model, established by intraperitoneally injecting 1 × 10^6 (g–j) or 2 × 10^6 (k–m) human A2780 cells overexpressing CSF1 or control into female recipient nude mice. Mice were then treated with/without liposomal clodronate (LC) for 45 days (g–j) or treated with/without NHWD-870 (PO, QD, 3 mg/kg) for 37 days (k–m). g Increased mouse body weight was measured at the indicated time points (day 0-45 after LC treatment). h–j Net tumor weight (h), ascitic fluid volumes (i) tumor implantations in peritoneum, omentum and pevic cavity (j) were measured at day 45 from LC treatment. k–m Net tumor weight (k), ascitic fluid volumes (l) tumor implantations in peritoneum, omentum and pevic cavity (m) were measured at day 37 after NHWD-870 treatment. For g–m, data are presented as mean ± SEM from five different mice. p values were calculated using two-tailed, unpaired t tests in this figure. n.s, not significant; *p < 0.05; **p < 0.01; and ***p < 0.001. Source data are provided as a Source Data file.
4–6 weeks old female BALB/c nude mice were used for most experiments, with the exception of 6–8 weeks old female C57BL/6 mice were used for B16F10 experiments, and 6–8 weeks old male BALB/c nude mice and SD rats were used for pharmacokinetic experiments. All animals were purchased from Shanghai SIPPR-Bk Lab Animal Co., Ltd. All animals were housed under a regimen of 12 h light/12 h dark cycles and specific pathogen-free conditions. 5×10^6 NCI-H526, ES-2, MDA-MB231, A2780, A375, B16F10, and TMD-8 cells (0.1 ml) were injected subcutaneously into female nude mice. The melanoma patient-derived xenograft model was derived from a human melanoma sample (BRAF, NARS and NF1 wild type, and p53 mutant) removed from a patient in Xiangya Hospital. Surgically removed tumor fragments were implanted subcutaneously into female NSG mice. When the tumors grew to ~1000 mm^3, they were harvested and cryopreserved or immediately re-implanted for expansion or experiments. Mouse body weight and tumor sizes were measured every 3 days. Once the tumors grew to 150–200 mm^3, mice were treated with the compounds as described in the Figures. 1 × 10^6 A2780 cells (1 ml) were injected into the abdominal cavity of nude mice. Ascitic volume and tumor weight were measured by an electronic balance. All the procedures were evaluated and approved by the Institutional Animal Care and Use Committee of Central South University and Yale University.

[1] = system: TAMs (CD68+ cells) in H526 tumors; test: Immunofluorescent staining of CD68 (TAMs) in subcutaneous H526 tumors; type: in vivo, mouse; details: subcutaneous H526 tumors from Fig. 3a, individual tumors
Description: Shown are immunofluorescent staining of CD68 (macrophage marker, red) and E-Cadherin (cancer cells, green) (a) and quantification of CD68 positive cells (b) in vehicle, NHWD-870 treated H526 (n = 6) and A2780 (n = 5) tumors from Fig. 3a, b, respectively. Scale bar is 100 μm. […] Shown are representative immunofluorescent staining of Ki67 and CD68 (c) and quantification of percentage of Ki67+ cells in CD68+ cells (d). Scale bar is 30 μm. Data are presented as mean ± SEM of five different tumors. e Schematics of the animal experiments using an orthotopic mouse OC model, established by intraperitoneally injecting human A2780 cells into female recipient nude mice. […] Shown are representative immunofluorescent staining of Ki67 and CD68 (h) and quantification of Ki67^+CD68^− (i) or Ki67^+CD68^+ (j), or CD68^+ cells (k). […] Data are presented as mean ± SEM from five different mice. p values were calculated using two-tailed, unpaired t tests in this figure. *p < 0.05; **p < 0.01; ***p < 0.001. […]
Immunofluorescence staining of tumor sections was performed according to the manufacturer’s instructions. Slides were imaged using a Zeiss Axiovert 200 fluorescence microscope (Carl Zeiss MicroImaging; Thornwood, NY), and images were captured using Openlab3 software (Imprecision, Lexington, MA). Cleaved caspase 3, Ki67, CSF1, and CD68 positive cells were counted with ImageJ version 1.52s[58].

[2] = CSF-1 overexpressing A2780 cells

## Cc1nnn(C)c1-c1cnc2c3c4cnn(C)c4ccc3n([C@H](c3ccccc3)C3CCOCC3)c2c1 [NHWD-870]
A2780 tumors; [2]
  Ascitic fluid (Fig.6l): 2.5 and 3.8 and 4.1 and 3.5 and 2.1
  Tumor nodules, Omentum (Fig.6m): 8 and 13 and 10 and 16 and 12
  Tumor nodules, Pelvic (Fig.6m): 45 and 54 and 36 and 64 and 51
  Tumor weight (Fig.6k): 375 and 345 and 367 and 276 and 305
A2780 tumors; PO, QD, 3 mg/kg, 37 days
  tumor inhibitory effects on CSF1 overexpressing A2780 tumors: strongly mitigated the tumor inhibitory effects
[1]
  quantification of CD68 positive cells: 0.3 and 1.5 and 0.1 and 0.7 and 0.5 and 1.1
